Measured values reported in ChEMBL document CHEMBL1145368, “Directed molecular screening for RecA ATPase inhibitors” (Bioorg Med Chem Lett, 2007).
The source made the active and inactive calls. The calls are words filed in the database; no cut-off is given here.

Experiments:
[1] = (§1) Inhibition of Escherichia coli RecA by ADP-linked fluorescent ATPase assay
Escherichia coli [2] = test: Inhibition of RecA-mediated DNA strand exchange reaction assessed as abrogation of nicked circular dsDNA formation at 100 uM
Escherichia coli [3] = test: as §1

IC50 [1] [µM] | Activity (Escherichia coli [2]) | Activity (Escherichia coli [3]) | SMILES
2 | Active |  | Cc1ccc(C(=O)Nc2ccc(S(=O)(=O)O)c3cc(S(=O)(=O)O)cc(S(=O)(=O)O)c23)cc1NC(=O)c1cccc(NC(=O)Nc2cccc(C(=O)Nc3cc(C(=O)Nc4ccc(S(=O)(=O)O)c5cc(S(=O)(=O)O)cc(S(=O)(=O)O)c45)ccc3C)c2)c1 [SURAMIN]
 |  | Active | O=S(=O)(O)c1cccc2c(-c3ccc(Nc4ccccc4)c4c(S(=O)(=O)O)cccc34)ccc(Nc3ccccc3)c12
 |  | Active | Nc1c(/N=N/c2ccc(-c3ccc(/N=N/c4cc(S(=O)(=O)O)c5ccccc5c4N)cc3)cc2)cc(S(=O)(=O)O)c2ccccc12
 |  | inactive | COc1cc(/C=C/C(=O)CC(=O)/C=C/c2ccc(O)c(OC)c2)ccc1O
